Here are results for 9 compounds from patent publication US20060045953A1 (priority 2004, published 2006).

Series [1] concerns the target T1, hT1R1/hT1R3 umami receptor (Homo sapiens, UniProt Q7RTX0+Q7RTX1).
T1 construct: expressed in transfected cells; host or cells: HEK293 derivative stably expressing Gα15, clone I-17, expression induced with mifepristone
T1 sequence (Q7RTX1 21-841): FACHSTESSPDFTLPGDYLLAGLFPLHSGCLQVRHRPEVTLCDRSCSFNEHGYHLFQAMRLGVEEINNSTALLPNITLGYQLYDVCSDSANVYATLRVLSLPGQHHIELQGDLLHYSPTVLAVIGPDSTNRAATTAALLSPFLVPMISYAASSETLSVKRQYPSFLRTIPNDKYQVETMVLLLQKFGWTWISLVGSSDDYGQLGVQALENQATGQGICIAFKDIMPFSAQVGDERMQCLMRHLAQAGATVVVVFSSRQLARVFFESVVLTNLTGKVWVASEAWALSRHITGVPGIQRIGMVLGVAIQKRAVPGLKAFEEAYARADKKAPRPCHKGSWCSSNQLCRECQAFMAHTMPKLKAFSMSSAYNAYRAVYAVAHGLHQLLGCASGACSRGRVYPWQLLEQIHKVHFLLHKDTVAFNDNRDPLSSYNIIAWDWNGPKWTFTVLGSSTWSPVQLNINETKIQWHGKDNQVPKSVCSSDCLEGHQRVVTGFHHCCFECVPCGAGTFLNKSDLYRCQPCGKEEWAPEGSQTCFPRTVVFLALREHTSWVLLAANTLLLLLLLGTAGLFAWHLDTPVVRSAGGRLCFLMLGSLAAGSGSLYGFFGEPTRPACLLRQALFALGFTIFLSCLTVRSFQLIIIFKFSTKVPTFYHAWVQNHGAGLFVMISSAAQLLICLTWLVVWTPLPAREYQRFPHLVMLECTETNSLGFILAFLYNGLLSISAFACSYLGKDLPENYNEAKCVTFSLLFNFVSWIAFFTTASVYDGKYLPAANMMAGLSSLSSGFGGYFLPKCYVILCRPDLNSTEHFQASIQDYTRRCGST
T1 sequence (Q7RTX0 21-852): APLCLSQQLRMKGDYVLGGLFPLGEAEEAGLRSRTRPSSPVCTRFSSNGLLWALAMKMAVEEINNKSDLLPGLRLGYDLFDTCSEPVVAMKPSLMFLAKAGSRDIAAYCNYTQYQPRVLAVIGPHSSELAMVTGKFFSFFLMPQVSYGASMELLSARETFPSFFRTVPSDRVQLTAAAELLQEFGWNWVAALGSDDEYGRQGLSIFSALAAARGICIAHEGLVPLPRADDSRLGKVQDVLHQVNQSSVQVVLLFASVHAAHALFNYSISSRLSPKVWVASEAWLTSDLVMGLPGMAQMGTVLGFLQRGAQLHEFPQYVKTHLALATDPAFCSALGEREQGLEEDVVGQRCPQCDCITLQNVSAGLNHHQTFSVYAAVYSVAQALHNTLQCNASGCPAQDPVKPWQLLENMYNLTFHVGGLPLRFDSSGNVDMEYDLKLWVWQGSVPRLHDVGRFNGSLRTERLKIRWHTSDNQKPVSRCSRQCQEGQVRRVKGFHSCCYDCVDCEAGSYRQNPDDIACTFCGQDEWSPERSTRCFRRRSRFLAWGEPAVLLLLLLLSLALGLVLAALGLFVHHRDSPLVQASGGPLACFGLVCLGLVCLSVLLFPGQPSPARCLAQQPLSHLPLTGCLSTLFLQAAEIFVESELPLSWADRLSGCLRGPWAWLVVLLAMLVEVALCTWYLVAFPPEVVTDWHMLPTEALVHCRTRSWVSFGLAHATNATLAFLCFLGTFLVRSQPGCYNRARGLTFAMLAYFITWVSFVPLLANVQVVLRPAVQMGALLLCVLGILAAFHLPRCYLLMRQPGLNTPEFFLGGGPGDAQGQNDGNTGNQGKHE
Put plainly: In vitro hT1R1/hT1R3 umami taste receptor activation assay (FLIPR, dose response). Type of series: cell-based. The settings on record: read-out: EC50 for activation of a hT1R1/hT1R3 umami receptor expressed in an HEK293 cell line.

The test system of another series is human panelists. The series can be described thus: Umami/savory flavor experiments using human panelists (trained panel, difference from reference). The class given is in vivo. To be noted: savory taste; for Taste Data: concentration of cpd that with 12 mM MSG is as strong as 12 mM MSG + 100 μM IMP: aqueous solution with 12 mM MSG; for Taste Data: concentration of cpd (alone) as strong as 12 mM MSG: without MSG. Here is the method:
General Panelist Selection: Basic screening of sensory taste testers: Potential panelists were tested for their abilities to rank and rate intensities of solutions representing the five basic tastes. Panelists ranked and rated intensity of five different concentrations of each of the five following compounds: sucrose (sweet), sodium chloride (salty), citric acid (sour), caffeine (bitter), and monosodium glutamate (savory). In order to be selected for participation in testing, panelists needed to correctly rank and rate samples for intensity, with a reasonable number of errors. […]
Trained Panelist Selection: A trained expert panel was used to further evaluate compounds that had been tested with the preliminary taste test.
Panelists for the trained panel were selected from the larger group of qualifying taste panelists. Panelists were further trained on savory taste by ranking and rating experiments using MSG and IMP combinations. Panelists completed a series of ranking, rating, and difference from reference tests with savory solutions. In ranking and rating experiments, panelists evaluated easy MSG concentrations (0, 6, 18, 36 mM) and more difficult MSG concentrations (3, 6, 12, 18 mM MSG) in water.
Compound testing with Trained Panel: Compounds tested by the trained panel were evaluated in difference from reference experiments. […] Test samples were solutions with varying amounts of MSG, IMP, and the compound. Typically, each session compares the reference sample to numerous test samples. […] Compounds were tested against the reference in samples with and without 12 mM MSG. All samples were presented in 10 ml volumes at room temperature. Two sessions were completed for each compound tested to evaluate panel reproducibility.

Turning to `COC(=O)[C@@H](CC(C)C)NC(=O)c1cc(C)c(C)o1` [Example 98, (R)-methyl 2-(2,3-dimethylfuran-5-carboxamido)-4-methylpentanoate], in series [1], the EC50 was found to be 0.59 µM. Moreover, the “Taste Data: concentration of cpd that with 12 mM MSG is as strong as 12 mM MSG + 100 μM IMP” value (shortened to “Taste Data: concentration of cpd that”) in the series with human panelists is 12 mM MSG + 10 μM cpd as strong as.
Take `COC(=O)[C@@H](CC(C)C)NC(=O)c1ccc2c(c1)OCO2` [Example 6, (R)-methyl 2-(benzo[d][1,3]dioxole-6-carboxamido)-4-methylpentanoate]: the EC50 in series [1] was determined as 0.34 µM. Further, in the series with human panelists, the “Taste Data: concentration of cpd that” value was 12 mM MSG + 10 μM cpd as strong as.
Turning to `CCCC(CCC)NC(=O)c1ccc2c(c1)OCO2` [Example 1, N-(heptan-4-yl)benzo[d][1,3]dioxole-5-carboxamide], the EC50 in series [1] worked out at 0.2 µM. In addition, in the series with human panelists, the “Taste Data: concentration of cpd that” value was 12 mM MSG + 3 μM cpd as strong as.
On to `COc1ccc(C(=O)N[C@H]2CCc3ccccc32)cc1C` [Example 121-1, (S)-N-(2,3-Dihydro-1H-inden-1-yl)-4-methoxy-3-methylbenzamide], for which the EC50 in series [1] was determined as 0.08 µM. In the series on human panelists, the “Taste Data: concentration of cpd that” value is recorded as 12 mM MSG + 1 μM cpd as strong as and the “Taste Data: concentration of cpd (alone) as strong as 12 mM MSG” value (“Taste Data: concentration of cpd (alone)” for short) is listed as 1 μM cpd as strong as 12 mM MSG.
Turning to `COC[C@@H](CC(C)C)NC(=O)c1ccc(OC)c(C)c1` [Example 104, 4-Methoxy-N-(1-methoxymethyl-3-methyl-butyl)-3-methyl-benzamide], in series [1], the EC50 was 0.24 µM. Moreover, in the series with human panelists, the “Taste Data: concentration of cpd that” value is 12 mM MSG + 3 μM cpd as strong as.
A word on the melting point: it is the temperature, or range, at which the solid turns liquid. Take `COc1cc(C)ccc1CNC(=O)C(=O)NCCc1ccc(C)cn1` [Example 157, N^1-(2-methoxy-4-methylbenzyl)-N^2-(2-(5-methylpyridin-2-yl)ethyl)oxalamide]: the melting point is 133.5 to 134 °C. In addition, the EC50 in series [1] came to 0.03 µM. For the same compound, in the series with human panelists, the “Taste Data: concentration of cpd that” value is given as 12 mM MSG + 0.3 μM cpd as strong and the “Taste Data: concentration of cpd (alone)” value is 0.3 μM cpd as strong as 12 mM MSG.
In the case of `COc1ccc(CNC(=O)C(=O)NCCc2ccccn2)c(OC)c1` [Example 123, N-(2,4-Dimethoxy-benzyl)-N′-(2-pyridin-2-yl-ethyl)-oxalamide], the EC50 in series [1] is 0.09 µM. Moreover, in the series with human panelists, the “Taste Data: concentration of cpd that” value is 12 mM MSG + 1 μM cpd as strong as and the “Taste Data: concentration of cpd (alone)” value is 1 μM cpd as strong as 12 mM MSG.
For the compound `COc1cc(C)ccc1CNC(=O)C(=O)NCCc1ccccn1` [Example 132, N-(2-methoxy-4-methylbenzyl)-N′-(2-(pyridin-2-yl)ethyl)oxalamide], the melting point was in the range of 128 to 131 °C. Also, in series [1], the EC50 came to 0.04 µM. In the series with human panelists, the “Taste Data: concentration of cpd that” value is 12 mM MSG + 1 μM cpd as strong as and the “Taste Data: concentration of cpd (alone)” value is 1 μM cpd as strong as 12 mM MSG.
With `COC[C@@H](CC(C)C)NC(=O)c1ccc(C)c(C)c1` [Example 71, (R)-N-(1-methoxy-4-methylpentan-2-yl)-3,4-dimethylbenzamide], in series [1], the EC50 came out at 0.2 µM. Moreover, in the series on human panelists, the “Taste Data: concentration of cpd that” value is reported as 12 mM MSG + 3 μM cpd as strong as.
